Paper PMC9186373, “Design, synthesis, and biological evaluation of novel carbazole derivatives as potent DNMT1 inhibitors with reasonable PK properties” (Journal of Enzyme Inhibition and Medicinal Chemistry, 2022)
Like-named read-outs stand apart in the source and are kept apart here.

Columns and labels:
EZH2 = assay: Methylation inhibition assay (AlphaLisa), EZH2; format: biochemical; settings: 50 µM; for inhibitory activity against EZH2: Figure 3; for Relative selectivity index of DNMT1 vs EZH2: 1 - selected enzyme inhibition/DNMT1 inhibition
Description: (§1) All the compounds were first screened using an ELISA EpiQuik DNA methyltransferase (DNMT) activity/inhibitor assay kit (Epigentek). To measure the effects of the compounds on human DNMT1 activity, 200 nM purified DNMT1 was incubated with 50 µM and 100 µM of the different compounds and S-adenosylmethionine in the DNMT assay buffer in the assay plate at 37 °C for 2 h[36]. Next, every sample was incubated with the capture and detection antibody, followed by incubation with developer solution for 10 min at room temperature. The absorbance was measured at 450 nm using a POLARstar Omega microplate reader (BMG). S-Adenosylhomocysteine (AdoHcy) was used as a positive control. Methylation inhibition assays for EZH2, LSD, and G9a were performed in modified Tris, pH 9.0, buffer using AlphaLisa technology. An amount of 10 µL of the reaction system contained a corresponding concentration of SAM (Sigma) (EZH2 50 µM, LSD 50 µM, and G9a 50 µM), which was the Km value in each enzymatic reaction, plus 100 nM biotinylated peptide H3 (1–21) (synthesis by GLChina) and the relevant enzyme concentration (0.03 nM EZH2, 0.03 nM LSD, and 0.03 nM G9a). The proteins were preincubated with various compound concentrations for 15 min at room temperature before the substrate and SAM were added. After 60 min of incubation at room temperature, acceptor and donor AlphaLisa beads were added according to the manufacturer’s recommendations. The signals were read in Alpha mode with an EnSpire multimode plate reader (PerkinElmer). IC50 values were derived by fitting the data for the inhibition percentage to a dose-response curve by non-linear regression in GraphPad Prism 5.0[20].
(§2) In addition to DNMT1, there are many other methyltransferases that can bind with S-adenosyl-L-methionine (SAM) to facilitate transmethylation reactions[24]^,[25]. To investigate the selectivity of these potent compounds for DNMT1, we then evaluated the inhibitory activities against DNMT1 and other important methyltransferases at the concentration of 50 µM, including DNMT3A/3L, DNMT3B/3L, and other SAM-dependent enzymes[1]^,[2]^,[26], such as EZH2[27], LSD1[28], G9a (histone H3 lysine 9 methyltransferase)[29].
(§3) 493 Relative selectivity index
(§4) 494 Relative selectivity index of DNMT1 is calculated by formula: DNMT1-selectivity
(§5) 495 index =1 - selected enzyme inhibition/DNMT1 inhibition. The closer
(§6) 496 that this value is to 1 or even more than 1, the better DNMT1-selectivity the of the
(§7) 498 Table S1. Relative selectivity index of DNMT1
Cpd. […]

[1] = test system: A549 (human lung cancer cells); assay: MTT assay, A549; format: cell-based
Description: (§8) The human lung cancer cells (A549) and human colon cancer cells (HCT116) were cultured in an RPMI-1640 medium containing 10% FBS, 100 U/mL streptomycin, and 100 U/mL penicillin at 37 °C in a humidified atmosphere with 5% CO2. All compounds were dissolved in DMSO and stock solutions were stored at −20 °C. Reagents were freshly diluted to the marked concentrations with a culture medium before use. DMSO concentration in experimental conditions never exceeded 0.1% (v/v). All cell lines were provided by the cell laboratory, School of pharmaceutical sciences, Guangzhou Medical University.
(§9) Cell viability was detected using an MTT assay kit. Cells were seeded into 96-well plates at a density of ∼1.0 × 10^4/well. 24 h later, sextuplicate wells were treated with media and new compounds at a fixed concentration (50 µM). After 24, 48, and 72 h, the drug-containing medium was replaced by a 100 µL fresh medium with 5 mg/mL MTT solution. After 4 h of incubation, the medium with MTT was removed, and 100 µL of DMSO was added to each well. The plates were gently agitated until the purple formazan crystals were dissolved, and the OD490 was determined using a […] (Olympus BX53, Japan). The data were calculated and plotted as the percent viability compared to the control.

human DNMT1 = assay: ELISA EpiQuik DNA methyltransferase (DNMT) activity/inhibitor assay; format: biochemical; settings: 200 nM purified DNMT1, EpiQuik kit; for Inh% at 50 μM: 50 μM compound; for Inh% at 100 μM: 100 μM compound
Description: as §1
DNMT1 inhibition test was performed on 30 candidates to verify their biochemical activities. The EpiQuik DNA methyl-transferase (DNMT) activity/inhibitor assay kit (Epigentek) was used to identify the activity of synthetic compounds.

DNMT3B/3L = assay: Methyltransferase enzymatic selectivity profiling, DNMT3B/3L; format: biochemical; settings: 50 µM; for inhibitory activity against DNMT3B/3L: Figure 3; for Relative selectivity index of DNMT1 vs DNMT 3B/3L: 1 - selected enzyme inhibition/DNMT1 inhibition
Description: as §2
(§10) Here, the selectivity of non-nucleoside DNMT1 inhibitors is somewhat predictable because other methyltransferases mentioned above catalyse different substrates and share very low homology with DNMT1, even in their catalytic domain[30–32]. Subsequently, the screened compounds were evaluated in a dose-dependent assay against HCT116 (human colon cancer cell line) and A549 (human lung carcinoma cell line).
as §3, §4, §5, §6, §7
Cpd. […]

[2] = test system: G9a (histone H3 lysine 9 methyltransferase); assay: Methylation inhibition assay (AlphaLisa), G9a; format: biochemical; settings: 50 µM; for inhibitory activity against G9a: Figure 3; for Relative selectivity index of DNMT1 vs G9a: 1 - selected enzyme inhibition/DNMT1 inhibition
Description: as §1, §2, §3, §4, §5, §6, §7
Cpd. […]

DNMT1 = DNMT1 (Homo sapiens, UniProt P26358); assay: H3-labelled radioactive methylation assay; format: biochemical; settings: H3-labeled radioactive methylation assay; 40 nM DNMT1
Description: The DNMT1 radioactive methylation inhibition assays were performed in 30 µL reactions containing 0.1 µM adenosyl-L-methionine S-[methyl-^3H] (^3H-SAM, ^15 Ci/mmol, PerkinElmer), 0.25 µg/mL poly (dI-dC)·poly (dI-dC) (Sigma), 40 nM DNMT1 in 50 mM Tris-HCl, pH 8.0, 1 mM DTT, 5% glycerol, and 100 µg/mL BSA. The proteins were preincubated with a range of compound concentrations for 15 min at room temperature before adding the substrate and [^3H] SAM. After 60 min of incubation at 37 °C, the reaction systems were transferred to a MultiScreen HTS filter plate (Millipore), and the plate was washed 3 times with doubly distilled H2O via a vacuum. The radioactivity was determined by liquid scintillation counting (MicroBeta, PerkinElmer). IC50 values were derived by fitting the data for the inhibition percentage to a dose-response curve by non-linear regression in GraphPad Prism 5.0.
To quantitatively analyse DNMT1 inhibitory effect, the H^3-labelled radioactive methylation assay was conducted to measure the methyltransferase activity of DNMT1 at a range of concentrations for these compounds.

LSD1 = assay: Methylation inhibition assay (AlphaLisa), LSD1; format: biochemical; settings: 1 - selected enzyme inhibition/DNMT1 inhibition; 50 µM
Description: as §1, §2, §3, §4, §5, §6, §7
Cpd. […]

DNMT3A/3L = assay: Methyltransferase enzymatic selectivity profiling, DNMT3A/3L; format: biochemical; settings: 1 - selected enzyme inhibition/DNMT1 inhibition; 50 µM
Description: as §2, §10, §3, §4, §5, §6, §7
Cpd. […]

[3] = test system: HCT116 (human colon cancer cells); assay: MTT assay, HCT116; format: cell-based
Description: as §8, §9

[4] = 24 h, read-out: Inh % at 50 μM, A549, 24 h
[5] = 48 h, read-out: Inh % at 50 μM, A549, 48 h
[6] = 72 h, read-out: Inh % at 50 μM, A549, 72 h
[7] = HCT-116, 24 h, read-out: Inh % at 50 μM, HCT116, 24 h
[8] = HCT-116, 48 h, read-out: Inh % at 50 μM, HCT116, 48 h
[9] = HCT-116, 72 h, read-out: Inh % at 50 μM, HCT116, 72 h

Chain of DNMT1 (P26358 whole entry): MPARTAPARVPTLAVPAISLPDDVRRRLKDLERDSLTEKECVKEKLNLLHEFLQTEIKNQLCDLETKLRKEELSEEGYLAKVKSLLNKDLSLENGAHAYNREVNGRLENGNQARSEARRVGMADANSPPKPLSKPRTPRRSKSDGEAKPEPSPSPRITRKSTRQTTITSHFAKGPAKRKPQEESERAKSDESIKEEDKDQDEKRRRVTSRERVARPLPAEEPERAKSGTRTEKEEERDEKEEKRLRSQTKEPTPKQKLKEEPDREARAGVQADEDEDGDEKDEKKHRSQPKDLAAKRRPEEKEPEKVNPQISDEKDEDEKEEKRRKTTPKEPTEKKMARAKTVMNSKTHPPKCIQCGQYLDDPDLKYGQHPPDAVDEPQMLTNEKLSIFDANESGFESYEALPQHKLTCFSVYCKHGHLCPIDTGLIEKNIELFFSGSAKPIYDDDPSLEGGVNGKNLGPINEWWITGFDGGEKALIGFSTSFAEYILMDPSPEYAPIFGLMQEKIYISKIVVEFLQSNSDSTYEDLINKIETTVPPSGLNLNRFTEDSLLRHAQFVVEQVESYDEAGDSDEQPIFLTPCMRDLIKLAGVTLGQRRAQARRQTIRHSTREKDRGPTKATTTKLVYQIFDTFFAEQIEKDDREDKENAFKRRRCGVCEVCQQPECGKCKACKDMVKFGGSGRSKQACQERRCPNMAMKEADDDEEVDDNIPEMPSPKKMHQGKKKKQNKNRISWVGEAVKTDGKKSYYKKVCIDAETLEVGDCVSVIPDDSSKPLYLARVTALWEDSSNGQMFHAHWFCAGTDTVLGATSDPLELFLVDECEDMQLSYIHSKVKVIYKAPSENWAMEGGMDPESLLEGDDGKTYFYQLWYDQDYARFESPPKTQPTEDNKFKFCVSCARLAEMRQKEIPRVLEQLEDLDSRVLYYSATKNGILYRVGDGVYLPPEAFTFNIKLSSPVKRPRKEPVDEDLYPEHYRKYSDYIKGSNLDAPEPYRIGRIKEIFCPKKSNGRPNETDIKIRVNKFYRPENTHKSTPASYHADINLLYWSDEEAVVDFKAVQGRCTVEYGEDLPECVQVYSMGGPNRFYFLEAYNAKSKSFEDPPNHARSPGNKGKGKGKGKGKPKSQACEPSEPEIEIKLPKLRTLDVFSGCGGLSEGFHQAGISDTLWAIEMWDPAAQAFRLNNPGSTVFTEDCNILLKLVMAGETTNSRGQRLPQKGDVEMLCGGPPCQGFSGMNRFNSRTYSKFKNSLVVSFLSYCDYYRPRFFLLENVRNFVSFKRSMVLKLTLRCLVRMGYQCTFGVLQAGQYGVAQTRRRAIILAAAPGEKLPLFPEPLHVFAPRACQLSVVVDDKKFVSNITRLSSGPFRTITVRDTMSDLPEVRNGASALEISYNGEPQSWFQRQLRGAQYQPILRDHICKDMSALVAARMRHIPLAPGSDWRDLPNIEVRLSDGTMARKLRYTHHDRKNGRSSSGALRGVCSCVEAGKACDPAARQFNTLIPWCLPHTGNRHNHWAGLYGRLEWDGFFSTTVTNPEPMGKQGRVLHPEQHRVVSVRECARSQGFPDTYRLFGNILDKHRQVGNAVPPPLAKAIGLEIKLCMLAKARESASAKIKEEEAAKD

Row | Structure (SMILES) | inhibitory activity against EZH2 (EZH2) | Relative selectivity index of DNMT1 vs EZH2 (EZH2) | inhibition at 50 µM [1, 4] [%] | inhibition at 50 µM [1, 5] [%] | inhibition at 50 µM [1, 6] [%] | melting point [°C] | Inh% at 50 μM (human DNMT1) [%] | Inh% at 100 μM (human DNMT1) [%] | inhibitory activity against DNMT3B/3L (DNMT3B/3L) | Relative selectivity index of DNMT1 vs DNMT 3B/3L (DNMT3B/3L) | inhibitory activity against G9a [2] | Relative selectivity index of DNMT1 vs G9a [2] | IC50 (DNMT1) [µM] | Relative selectivity index of DNMT1 vs LSD1 (LSD1) | Relative selectivity index of DNMT1 vs DNMT 3A/3L (DNMT3A/3L) | inhibition at 50 µM [3, 7] [%] | inhibition at 50 µM [3, 8] [%] | inhibition at 50 µM [3, 9] [%]
1 | OC(CNCCc1c[nH]c2ccccc12)Cn1c2ccccc2c2cc(F)ccc21 (stereo not shown) [WK-1, 1-((2-(1H-indol-3-yl)ethyl)amino)-3-(3-fluoro-9H-carbazol-9-yl)propan-2-ol] | hardly any inhibitory activities | 0.93 | 88.2 | 78.6 | 87.6 | 137 to 139 | 82 | 100 | hardly any inhibitory activities | 1.15 | hardly any inhibitory activities | 0.84 | 28 | 0.18 | 0.49 | 90.9 | 88 | 94.9
2 | OC(CNCCc1c[nH]c2ccccc12)Cn1c2ccc(F)cc2c2cc(F)ccc21 (stereo not shown) [WK-12, 1-((2-(1H-indol-3-yl)ethyl)amino)-3-(3,6-difluoro-9H-carbazol-9-yl)propan-2-ol] | hardly any inhibitory activities | 0.91 | 59.9 | 80.1 | 84.7 | 130 to 132 | 99 | 94 | hardly any inhibitory activities | 1.09 | hardly any inhibitory activities | 0.93 | 17 | 0.23 | 0.67 | 77.7 | 88.8 | 96.7
3 | Oc1ccc(CCNCC(O)Cn2c3ccc(F)cc3c3cc(F)ccc32)cc1 (stereo not shown) [WK-13, 4-(2-((3-(3,6-Difluoro-9H-carbazol-9-yl)-2-hydroxypropyl)amino)ethyl) phenol] | hardly any inhibitory activities | 1.01 | – | 69.2 | 84.1 | 143 to 145 | 82 | 90 | hardly any inhibitory activities | 1.28 | hardly any inhibitory activities | 0.91 | 19 | 0.33 | 0.68 | – | 86.3 | 93.2
4 | CC(CO)NCC(O)Cn1c2ccc(F)cc2c2cc(F)ccc21 (stereo not shown) [WK-19, 2-((3-(3,6-Difluoro-9H-carbazol-9-yl)-2-hydroxypropyl)amino)propan-1-ol] | – | 1.01 | 7.9 | 68.4 | 79.9 | 136 to 138 | 78 | 93 | – | 1.29 | – | 0.91 | 9.2 | 0.29 | 0.67 | 5.6 | 59.4 | 88.3
